Data from patent publication US12226424B2, “Target protein degradation compounds, their anti-tumor use, their intermediates and use of intermediates” (ShanghaiTech University, priority 2018, dated 2025).
Read-outs that look alike come from different tables or passages of the source.

Legend:
[1] = system: CDK4/6 protein; test: Western-blot determination of CDK4/6 protein degradation (DC50) in T-47D cells; type: cell-based, human; settings: 24 h drug treatment, read-out: DC50(nM)/T-47D cell line
[2] = system: CDK4/6 protein; test: Western-blot determination of CDK4/6 protein degradation (DC50) in Jurkat cells; type: cell-based; settings: read-out: DC50(nM)/Jurkat cell line
[3] = system: MM1S cells; test: Half inhibitory concentration (IC50) on BET-expressing tumor cells, CCK-8, MM1S; type: cell-based; settings: Homo sapiens, MM1.S, 48/72 h, read-out: IC50 (nM)/MM1S cell line
In short: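 Cells treated for 48/72 h with ten 5-fold dilutions from 10 μM top, DMSO as negative control. Viability read by CCK-8 (2 h, OD450) and IC50 derived from the concentration series; suspension lines seeded at 15000/10000 cells/well, MDA-MB lines at 3000/5000 cells/well.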

[4] = system: MDA-MB-231 cells; test: Half inhibitory concentration (IC50) on BET-expressing tumor cells, CCK-8, MDA-MB-231; type: cell-based; settings: Homo sapiens, 48/72 h, read-out: IC50 (nM)/MDA-MB-231 cell line
Method: (§1) BET-expressing cells MV-4-11 cells (human B granulocytic leukemia cells), MDA-MB-231 cells (human breast cancer cells), MDA-MB-468 cells (human breast cancer cells), MDA-MB-453 Cells (human breast cancer cells), MM1S cells (myeloma (immunoglobulin A lambda), B lymphoblasts) and SR cells (human large cell immunoblast lymphoma) were purchased from the American Type Culture Collection (ATCC).
(§2) The cells used in this present disclosure were cultured in a 37° C. incubator containing 5% CO2. The complete cell culture medium was RPMI 1640/IMDM/DMEM medium with 10% fetal bovine serum, and the final concentrations of penicillin and streptomycin were 100 U/mL, respectively. All cells were tested negative for mycoplasma with mycoplasma detection kit before the experiment.
(§3) Determination of the Half Inhibitory Concentration (IC50) of PROTAD Compounds on Tumor Cells
(§4) MV-411 cells, MM1S cells and SR cells were seeded in 100 μL IMDM/RPMI1640/DMEM complete medium at a density of 15000/10000 cells/well; MDA-MB-231 cells, MDA-MB-468 cells, and MDA-MB453 cells were seeded in 100 μL IMDM/RPMI1640/DMEM complete medium at a density of 3000/5000 cells/well, respectively. 100 μL of the inoculated cells were treated with 0.5 μL diluted PROTAD compounds of the present disclosure to be tested at 10 successively decreasing concentrations (starting at the highest concentration of 10 μM; 5-fold serial dilutions). After the cells were treated with the tested drugs 48/72 h, the cell viability was determined according to the CCK-8 reagent manual. The negative control was DMSO, and the positive control was a commercial inhibitor. After CCK-8 treatment for 2 h, the value of O.D.450 was measured using a microplate reader.

[5] = system: MV-4-11 cells; test: Half inhibitory concentration (IC50) on BET-expressing tumor cells, CCK-8, MV-4-11; settings: Homo sapiens, MV4-11, read-out: IC50 (nM)/MV-4-11 cell line, MV-4-11 cells, 48/72 h, CCK-8
[6] = system: MDA-MB-468 cells; test: Half inhibitory concentration (IC50) on BET-expressing tumor cells, CCK-8, MDA-MB-468; type: cell-based; settings: Homo sapiens, 48/72 h, read-out: IC50 (nM)/MDA-MB-468 cell line
Method: as §1, §2, §3, §4

[7] = system: SR cells; test: Half inhibitory concentration (IC50) on BET-expressing tumor cells, CCK-8, SR; type: cell-based; settings: Homo sapiens, 48/72 h, read-out: IC50 (nM)/SR cell line
Method: as §1, §2, §3, §4

[8] = system: MDA-MB-453 cells; test: Half inhibitory concentration (IC50) on BET-expressing tumor cells, CCK-8, MDA-MB-453; type: cell-based, human; settings: 48/72 h, read-out: IC50 (nM)/MDA-MB-453 cell line
Method: as §1, §2, §3, §4

[9] = target: BRD2 (Homo sapiens, UniProt P25440); test: Western-blot half-degradation concentration (DC50) / degradation of BRD2 in MV-4-11 cells; type: cell-based; settings: 24 hours, Western-blot, read-out: DC50 (nM)/MV-4-11 cell line BRD2 degradation
Description: Western-Blot Determination of the Half-Degradation Concentration (DC50) of the PROTAD Compounds on the Target Proteins
The supernatant was aspirated as total cell protein extracted.

[10] = Homo sapiens, MDA-MB-453, MDA-MB-453 cells

Sequence of BRD2 (P25440 whole entry): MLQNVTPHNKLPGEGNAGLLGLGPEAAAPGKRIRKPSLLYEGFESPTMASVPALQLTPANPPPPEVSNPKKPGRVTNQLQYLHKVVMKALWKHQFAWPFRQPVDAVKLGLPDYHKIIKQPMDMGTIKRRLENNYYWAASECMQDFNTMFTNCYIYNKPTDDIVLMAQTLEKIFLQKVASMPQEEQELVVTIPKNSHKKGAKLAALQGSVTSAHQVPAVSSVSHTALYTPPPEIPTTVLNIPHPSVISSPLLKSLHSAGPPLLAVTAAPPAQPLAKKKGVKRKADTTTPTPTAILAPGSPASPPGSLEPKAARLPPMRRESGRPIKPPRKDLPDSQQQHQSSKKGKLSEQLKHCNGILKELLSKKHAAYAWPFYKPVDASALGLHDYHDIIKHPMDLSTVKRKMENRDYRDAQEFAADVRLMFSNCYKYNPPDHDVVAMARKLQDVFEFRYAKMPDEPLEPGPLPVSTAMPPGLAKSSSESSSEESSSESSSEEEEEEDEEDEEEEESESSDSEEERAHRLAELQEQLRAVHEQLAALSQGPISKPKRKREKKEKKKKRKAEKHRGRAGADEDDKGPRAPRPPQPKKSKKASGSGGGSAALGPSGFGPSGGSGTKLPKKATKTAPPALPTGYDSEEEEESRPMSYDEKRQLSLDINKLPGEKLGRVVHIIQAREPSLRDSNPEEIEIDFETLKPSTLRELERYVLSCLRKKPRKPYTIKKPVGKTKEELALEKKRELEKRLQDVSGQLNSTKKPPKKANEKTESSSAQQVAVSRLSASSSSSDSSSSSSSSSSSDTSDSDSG

DC50 [1] [nM]	DC50 [2] [nM]	IC50 [3] [nM]	IC50 [4] [nM]	IC50 [5] [nM]	IC50 [6] [nM]	IC50 [7] [nM]	IC50 [8, 10] [nM]	IC50 ([8]; MDA-MB-453 cells) [nM]	DC50 [9] [nM]	Structure (SMILES)
1 to 10	1 to 10									CC(=O)c1c(C)c2cnc(Nc3ccc(N4CCN(C(=O)CCCCCCSc5cccc6c5C(=O)N(C5CCC(=O)NC5=O)C6=O)CC4)cn3)nc2n(C2CCCC2)c1=O (stereo not drawn) [SIAIS184090, 4-((7-(4-(6-((6-acetyl-8-cyclopentyl-5-methyl-7-oxo-7,8-dihydropyrido[2,3-d]pyrimidin-2-yl)amino)pyridin-3-yl)piperazin-1-yl)-7-oxoheptyl)thio)-2-(2,6-dioxopiperidin-3-yl)isoindoline-1,3-dione]
1 to 10	1 to 10									CC(=O)c1c(C)c2cnc(Nc3ccc(N4CCN(C(=O)COCCSc5cccc6c5C(=O)N(C5CCC(=O)NC5=O)C6=O)CC4)cn3)nc2n(C2CCCC2)c1=O (stereo not drawn) [SIAIS184091, 4-((2-(2-(4-(6-((6-acetyl-8-cyclopentyl-5-methyl-7-oxo-7,8-dihydropyrido[2,3-d]pyrimidin-2-yl)amino)pyridin-3-yl)piperazin-1-yl)-2-oxoethoxy)ethyl)thio)-2-(2,6-dioxopiperidin-3-yl)isoindoline-1,3-dione]
		0.32	313 ± 309	0.3	376 ± 55	1.48				Cc1sc2c(c1C)C(c1ccc(Cl)cc1)=N[C@@H](CC(=O)NCCCCCCSc1cccc3c1CN(C1CCC(=O)NC1=O)C3=O)c1nnc(C)n1-2 (stereo partly drawn) [SIAIS171143, 2-((S)-4-(4-chlorophenyl)-2,3,9-trimethyl-6H-thieno[3,2-f][1,2,4]triazolo[4,3-a][1,4]diazepin-6-yl)-N-(6-((2-(2,6-dioxopiperidin-3-yl)-1-oxoisoindolin-4-yl)thio)hexyl)acetamide]
		5.36	88 ± 38	6.2 ± 4.1	52.5 ± 24		154	226	< 0.4	Cc1sc2c(c1C)C(c1ccc(Cl)cc1)=N[C@@H](CC(=O)NCCCCSc1cccc3c1C(=O)N(C1CCC(=O)NC1=O)C3=O)c1nnc(C)n1-2 (stereo partly drawn) [SIAIS171037, 2-((S)-4-(4-chlorophenyl)-2,3,9-trimethyl-6H-thieno[3,2-f][1,2,4]triazolo[4,3-a][1,4]diazepin-6-yl)-N-(4-((2-(2,6-dioxopiperidin-3-yl)-1,3-dioxoisoindolin-4-yl)thio)butyl)acetamide]
< 0.1	< 1									CC(=O)c1c(C)c2cnc(Nc3ccc(N4CCN(C(=O)CCCCSc5cccc6c5CN(C5CCC(=O)NC5=O)C6=O)CC4)cn3)nc2n(C2CCCC2)c1=O (stereo not drawn) [SIAIS184092, 3-(4-((5-(4-(6-((6-acetyl-8-cyclopentyl-5-methyl-7-oxo-7,8-dihydropyrido[2,3-d]pyrimidin-2-yl)amino)pyridin-3-yl)piperazin-1-yl)-5-oxopentyl)thio)-1-oxoisoindolin-2-yl)piperidine-2,6-dione]
1 to 10	1 to 10									CC(=O)c1c(C)c2cnc(Nc3ccc(N4CCN(C(=O)CSc5cccc6c5C(=O)N(C5CCC(=O)NC5=O)C6=O)CC4)cn3)nc2n(C2CCCC2)c1=O (stereo not drawn) [SIAIS151046, 4-((2-(4-(6-((6-acetyl-8-cyclopentyl-5-methyl-7-oxo-7,8-dihydropyrido[2,3-d]pyrimidin-2-yl)amino)pyridin-3-yl)piperazin-1-yl)-2-oxoethyl)thio)-2-(2,6-dioxopiperidin-3-yl)isoindoline-1,3-dione]
		7.77	182 ± 89	6.2 ± 3	61 ± 8		135	230	< 0.4	Cc1sc2c(c1C)C(c1ccc(Cl)cc1)=N[C@@H](CC(=O)NCCCCCSc1cccc3c1C(=O)N(C1CCC(=O)NC1=O)C3=O)c1nnc(C)n1-2 (stereo partly drawn) [SIAIS171038, 2-((S)-4-(4-chlorophenyl)-2,3,9-trimethyl-6H-thieno[3,2-f][1,2,4]triazolo[4,3-a][1,4]diazepin-6-yl)-N-(5-((2-(2,6-dioxopiperidin-3-yl)-1,3-dioxoisoindolin-4-yl)thio)pentyl)acetamide]
